# Test results: patent US20240409558A1, “IRREVERSIBLE INHIBITORS OF KRAS” (BIOMEA FUSION, INC., priority 2021, published 2024)
# Like-named read-outs stand apart in the source and are kept apart here.
# Test system: human KRAS G12C mutated cell line MIA PaCa-2
# Experiment: Inhibition of proliferation of MIA PaCa-2 cells (CellTiter-Glo, 7 day)
# Assay type: cell-based
# Conditions: 168 h
# Description: The present example evaluates the ability of compounds provided herein to inhibit proliferation of KRAS mutant cells.
# The proliferation inhibitory effect was investigated in the human KRAS G12C mutated cell line MIA PaCa-2 (Yunis et al., 1977, Int. J. Cancer 19(1):128-135; ATCC catalog no. CRL-1420). Cells were maintained in RPMI-1640 medium (ThermoFisher catalog no. 61870036) supplemented with 10% of Heat Inactivated FBS (ThermoFisher catalog no. A31605) and 1% Pen-Strep (ThermoFisher catalog no. 10378016) and cultured at 37° C. in a humidified incubator with 5% CO2. Cell lines were grown by adhering to culture flasks, and the cells were maintained in a range 70%-80% confluency.
# ATP is present in all metabolically active cells and is considered as a marker for cell viability and proliferation. Metabolic cell activity was determined using the CellTiter-Glo kit (Promega catalog no. G7572), an ATP monitoring system based on the production of luminescence by the reaction of ATP with added UltraGlo® recombinant luciferase (Kawano et al., 2016, PLOS One, 8; 11(7):e0158888), according to the supplier's experimental recommendations. The assay was based on a 96 well plate format.
# Test compounds were dissolved at 10 mM in DMSO (Sigma catalog no. D8418; purity >99.9%) and stored at −20° C. Eight concentrations of test compound were assessed in duplicate in an individual test occasion in parallel in the selected cell lines. MRTX-849 and AMG-510 were used as reference compounds and tested in duplicate at eight concentrations. 100% of proliferation is represented by the untreated cells (0.2% DMSO).
# (§1) On the day of the experiment (TO), cells were detached with TrypLE (ThermoFisher catalog no. 12604054) and quantified using the Vi-CELL XR Cell Viability (Beckman Coulter) analyzer and diluted with fresh medium to obtain the cell density of about 1000 cells per 200 μL medium. 200 μL of cell suspension were added into wells in the 96 well plate.
# After 2 hours from seeding cells, compounds were added using a D300e compound dispenser (Tecan Trading AG) at desired concentrations with shaking between each compound dispensed. Cell plates containing 200 μL/well were incubated at 37° C. in a humidified incubator with 5% CO2.
# On day T3, 150 μL of growth media per well were removed from plates containing the samples, 150 uL fresh growth media were added to each well, and fresh compounds were added using a D300e compound dispenser (Tecan Trading AG) at desired concentrations with shaking between each compound dispensed. Cell plates containing 200 uL/well were incubated at 37° C. in a humidified incubator with 5% CO2. On day T7 plates containing the samples were equilibrated at room temperature for approximately 15 min, and then 40 μL/well of the Promega CellTiterGlo® reagent was added. Contents were mixed for 30 minutes on an orbital shaker to induce cell lysis. Luminescence was read using a Synergy Neo 2 (Agilent Technologies.
# Data was expressed as % of inhibition compared to the 0.2% DMSO negative control, and is calculated as follows: % inhibition=100−[(RLU sample)×100/(RLU controls*)], where * indicates the average for 0.2% DMSO. […]
# as §1, with “12604054),” for “12604054) and”, “resuspended in” for “diluted with”, “at a” for “to obtain the”, “to each well of a” for “into wells in the”
# Two hours after seeding cells, compounds were added at desired concentrations using a D300e compound dispenser (Tecan Trading AG) with shaking after each compound addition. Assay plates were incubated at 37° C. in a humidified incubator with 5% CO2.
# On day 3 (T3) 150 μL of medium from assay plates were removed. 150 μL fresh medium and compounds were added at desired concentrations using a D300e compound dispenser (Tecan Trading AG) with shaking after each compound addition. […]
# [1] = Table 3, 7 day, mean, read-out: MIA PaCa-2 IC50 (μM) 7 day Mean
# [2] = Table 4, 7 day, mean, read-out: MIA PaCa-2 IC50 (μM) 7 day Mean
SMILES,IC50 [1] [µM],IC50 [2] [µM],also measured
"C=CC(=O)N1C2CCC1CN(c1nc(OCC34CCCN3CCC4)nc3c(F)c(-c4cccc(Cl)c4C4CC4)ncc13)C2 [Compound 301, 1-[3-[7-(3-chloro-2-cyclopropyl-phenyl)-8-fluoro-2-(1,2,3,5,6,7-hexahydropyrrolizin-8-ylmethoxy)pyrido[4,3-d]pyrimidin-4-yl]-3,8-diazabicyclo[3.2.1]octan-8-yl]prop-2-en-1-one]",0.16,,
"C=CC(=O)N1C[C@H]2C[C@@H]1CN2c1nc(OC[C@@]23CCCN2C[C@H](F)C3)nc2c(F)c(-c3cc(O)cc(Cl)c3C3CC3)ccc12 [Compound 311, 1-[(1R,4R)-5-[7-(3-chloro-2-cyclopropyl-5-hydroxy-phenyl)-8-fluoro-2-[[(2R,8S)-2-fluoro-1,2,3,5,6,7-hexahydropyrrolizin-8-yl]methoxy]quinazolin-4-yl]-2,5-diazabicyclo[2.2.1]heptan-2-yl]prop-2-en-1-one]",> 1,,
"C=CC(=O)N1C2CCC1CN(c1nc(OC[C@@]34CCCN3C[C@H](F)C4)nc3c(F)c(-c4cc(O)cc5cccc(Cl)c45)ncc13)C2 [Compound 305, 1-[3-[7-(8-chloro-3-hydroxy-1-naphthyl)-8-fluoro-2-[[(2R,8S)-2-fluoro-1,2,3,5,6,7-hexahydropyrrolizin-8-yl]methoxy]pyrido[4,3-d]pyrimidin-4-y1]-3,8-diazabicyclo[3.2.1]octan-8-yl]prop-2-en-1-one]",0.0023,,
"C=CC(=O)N1C[C@H]2C[C@@H]1CN2c1nc(OC[C@@]23CCCN2C[C@H](F)C3)nc2cc(-c3cc(O)cc(Cl)c3C3CC3)cnc12 [Compound 312, 1-[(1R,4R)-5-[7-(3-chloro-2-cyclopropyl-5-hydroxy-phenyl)-2-[[(2R,8S)-2-fluoro-1,2,3,5,6,7-hexahydropyrrolizin-8-yl]methoxy]pyrido[3,2-d]pyrimidin-4-y1]-2,5-diazabicyclo[2.2.1]heptan-2-yl]prop-2-en-1-one]",> 1,,
OC1Cc2cccc(Cl)c2N(c2ncc3c(N4CC5CCC(C4)N5)nc(OC[C@@]45CCCN4C[C@H](F)C5)nc3c2F)C1 (stereo partly shown) [Compound 432],,> 1,
"Oc1cc(-c2ncc3c(C4CC5CCC(C4)N5)nc(OC[C@@]45CCCN4C[C@H](F)C5)nc3c2F)c2c(F)c(F)ccc2c1 (stereo partly drawn) [Compound 443, 4-[4-(8-azabicyclo[3.2.1]octan-3-yl)-8-fluoro-2-[[(2R,8S)-2-fluoro-1,2,3,5,6,7-hexahydropyrrolizin-8-yl]methoxy]pyrido[4,3-d]pyrimidin-7-y1]-5,6-difluoro-naphthalen-2-ol]",,> 1,
Oc1cc(Cl)c(C2CC2)c(-c2ccc3c(C4CC5CCC(C4)N5)nc(OCC45CCCN4CC(F)C5)nc3c2F)c1 (stereo not shown) [Compound 205],,,"IC50 (Table 2, CellTiter-Glo luminescence read on day 7, read-out: MIA PaCa-2 IC50): 0.358 µM"
"C=C(F)C(=O)N1C2CCC1CN(c1nc(OC[C@@]34CCCN3C[C@H](F)C4)nc3c(F)c(-c4cc(O)cc(Cl)c4C4CC4)ccc13)C2 [Compound 307, 1-[3-[7-(3-chloro-2-cyclopropyl-5-hydroxy-phenyl)-8-fluoro-2-[[(2R,8S)-2-fluoro-1,2,3,5,6,7-hexahydropyrrolizin-8-yl]methoxy]quinazolin-4-yl]-3,8-diazabicyclo[3.2.1]octan-8-yl]-2-fluoro-prop-2-en-1-one]",0.126,,
"C=CC(=O)N1C2CCC1CN(c1nc(OC[C@@]34CCCN3C[C@H](F)C4)nc3c(F)c(-c4cc(O)cc(Cl)c4C4CC4)ncc13)C2 [Compound 302, 1-[3-[7-(3-chloro-2-cyclopropyl-5-hydroxy-phenyl)-8-fluoro-2-[[(2R,8S)-2-fluoro-1,2,3,5,6,7-hexahydropyrrolizin-8-yl]methoxy]pyrido[4,3-d]pyrimidin-4-yl]-3,8-diazabicyclo[3.2.1]octan-8-yl]prop-2-en-1-one]",0.000287,,
"C=CC(=O)N1CCN(c2nc(OC[C@@]34CCCN3C[C@H](F)C4)nc3cc(-c4cc(O)cc(Cl)c4C4CC4)c(F)cc23)C2(CC2)C1 [Compound 316, 1-[4-[7-(3-chloro-2-cyclopropyl-5-hydroxy-phenyl)-6-fluoro-2-[[(2R,8S)-2-fluoro-1,2,3,5,6,7-hexahydropyrrolizin-8-yl]methoxy]quinazolin-4-yl]-4,7-diazaspiro[2.5]octan-7-yl]prop-2-en-1-one]",> 1,,

# More lines, main results first:
IC50 [1] [µM],IC50 [2] [µM],SMILES,also measured
,> 1,"Oc1cc(Cl)c(C2CC2)c(-c2ncc3c(N4CCC5(CC4)CO5)nc(OC[C@@]45CCCN4C[C@H](F)C5)nc3c2F)c1 [Compound 437, 3-chloro-4-cyclopropyl-5-[8-fluoro-2-[[(2R,8S)-2-fluoro-1,2,3,5,6,7-hexahydropyrrolizin-8-yl]methoxy]-4-(1-oxa-6-azaspiro[2.5]octan-6-yl)pyrido[4,3-d]pyrimidin-7-yl]phenol]",
,> 1,"Fc1cc2c(N3CCNCC34CC4)nc(OC[C@@]34CCCN3C[C@H](F)C4)nc2cc1-c1cccc2cccc(Cl)c12 [Compound 408, 7-(8-chloro-1-naphthyl)-4-(4,7-diazaspiro[2.5]octan-4-yl)-6-fluoro-2-[[(2R,8S)-2-fluoro-1,2,3,5,6,7-hexahydropyrrolizin-8-yl]methoxy]quinazoline]",
,> 1,C[C@@H]1CNCCN1c1nc(OC[C@@]23CCCN2C[C@H](F)C3)nc2cc(-c3c(O)cccc3C3CC3)c(F)cc12 [Compound 426],
,> 1,Oc1cc(Cl)c(C2CC2)c(-c2cc3nc(OC[C@@]45CCCN4C[C@H](F)C5)nc(N4C[C@H]5C[C@@H]4CN5)c3cc2F)c1 [Compound 417],
,> 1,"N#C[C@H]1CNCCN1c1nc(OC[C@@]23CCCN2C[C@H](F)C3)nc2c(F)c(-c3cc(O)cc(Cl)c3C3CC3)ccc12 [Compound 415, (2R)-1-[7-(3-chloro-2-cyclopropyl-5-hydroxy-phenyl)-8-fluoro-2-[[(2R,8S)-2-fluoro-1,2,3,5,6,7-hexahydropyrrolizin-8-yl]methoxy]quinazolin-4-y1]piperazine-2-carbonitrile]",
0.858,,C=CC(=O)N1CCC(C)(c2nc(OC[C@@]34CCCN3C[C@H](F)C4)nc3c(F)c(-c4cc(O)cc(Cl)c4C4CC4)ncc23)CC1 [Compound 335],
,7.83,"Oc1cc(-c2ncc3c(C45CCNCC4C5)nc(OC[C@@]45CCCN4C[C@H](F)C5)nc3c2F)c2ccccc2c1 (stereo partly drawn) [Compound 403, 4-[4-(3-azabicyclo[4.1.0]heptan-6-yl)-8-fluoro-2-[[(2R,8S)-2-fluoro-1,2,3,5,6,7-hexahydropyrrolizin-8-yl]methoxy]pyrido[4,3-d]pyrimidin-7-yl]naphthalen-2-ol]",
> 1,,"C=CC(=O)N1CCN(c2nc(OC[C@@]34CCCN3C[C@H](F)C4)nc3cc(-c4c(O)cccc4C4CC4)cnc23)[C@H](C)C1 [Compound 320, 1-[(3R)-4-[7-(2-cyclopropyl-6-hydroxy-phenyl)-2-[[(2R,8S)-2-fluoro-1,2,3,5,6,7-hexahydropyrrolizin-8-yl]methoxy]pyrido[3,2-d]pyrimidin-4-yl]-3-methyl-piperazin-1-yl]prop-2-en-1-one]",
,> 1,"C=C1CCN(c2nc(OC[C@@]34CCCN3C[C@H](F)C4)nc3c(F)c(-c4cc(O)cc(Cl)c4C4CC4)ncc23)CC1 [Compound 436, 3-chloro-4-cyclopropyl-5-[8-fluoro-2-[[(2R,8S)-2-fluoro-1,2,3,5,6,7-hexahydropyrrolizin-8-yl]methoxy]-4-(4-methylene-1-piperidyl)pyrido[4,3-d]pyrimidin-7-yl]phenol]",
